# Assay results taken from a melting point compilation (Tetko et al.; mined from patent text by program, amines drawn as free bases though some values may be those of a salt).
row,melting point [°C],SMILES
1,78 to 80,O=C1NC(=O)C(Cc2ccc(OC[C@@H]3CCCN3c3ccccn3)cc2)S1 (stereo not given in full)
2,154 to 155,CCOC(=O)C1=C(N)C(OCC)=NS1=O (stereo not given)
3,248 to 252,CCc1cc(Nc2nc(Nc3cc(CC)n[nH]3)c3ccccc3n2)[nH]n1
4,225 to 227,COc1nc(C)c(N2CCCn3c2nc2c(Cl)ccc(C(OCC(F)(F)F)C4CC4)c23)c(C)n1 (stereo not given)
5,122,O=C1N(CCCl)c2ccc(F)cc2C12SCCCS2
6,137 to 139,O=C1N(CC2CCCO2)c2cc(F)ccc2C12COc1cc3c(cc12)CCO3 (stereo not given)
7,58,COC(=O)C1=C(C)NC(C)=C(C(=O)OCCN2CCN(c3ccccc3OC)CC2)C1c1cccc([N+](=O)[O-])c1 (stereo not given)
8,73 to 75,O=C(COc1cccnc1)C12CC3CC(CC(C3)C1)C2
9,254 to 257,CC(c1oc2ccccc2c(=O)c1-c1ccccc1)n1cnc2c(N)ncnc21 (stereo not given)
10,98 to 100,CCCCCC(O)C=CC1C(O)CC(O)C1CCCCCCC(=O)O (stereo not given)
11,174 to 175,CCCn1c(=O)sc2cc(F)c(NC(=O)C=C(CC)NC(=O)OCC)cc21
12,116 to 118,C=C(C)[C@H](C(=O)OC(c1ccccc1)c1ccccc1)N1C(=O)[C@@H]2N=C(c3ccccc3)O[C@@H]21
13,153 to 156,CCc1cc2c(ccc(=O)n2Cc2ccc([N+](=O)[O-])cc2)c(CC)n1
14,148 to 150,COc1ccc(C=CC2=NN=C(C)Cc3cc(OC)c(OC)cc32)c(OC)c1
15,125,Nc1ccccc1C(=O)COC(=O)c1ccccc1
16,105 to 107,CN1CCN(c2nn(C(=O)c3ccccc3)c3ccc(Cl)cc23)CC1
17,257 to 260,C[C@@H](NC(=O)c1c[nH]c2ncc(-c3nn(C)c4cc(Cl)ccc34)nc12)C(=O)N1CC(F)C1
18,148 to 149,O=C(C=Cc1ccccc1O)c1ccccc1
19,176 to 178,CCOC(=O)c1cn(CC)c2cc(C3CCCCC3)ccc2c1=O
20,99 to 101,C=CCN1N=C(c2ccc(OC)c(OC)c2)[C@@H]2CCCC[C@@H]2C1=O (relative stereo)
21,186,Nc1c(Cl)cc(C(=O)NC2CCN(CCO)CC2)c2c1CCO2
22,155 to 158,Nc1cccc(S(=O)(=O)Nc2nncs2)c1
23,105,COC(=O)c1ccc(CC23CCCN2C(=O)N(c2cc(Cl)c(O)c(Cl)c2)C3=O)cc1 (stereo not given)

row,melting point [°C],SMILES
1,145,CC(=O)SC[C@H]1CCCCCC[C@H](C(=O)N2C[C@H](O)C[C@H]2C(=O)OCc2ccccc2)NC1=O
2,167 to 168,CCCC(=O)/C=C/c1cn(-c2ccccc2)nc1OCc1ccc(OCc2nc(-c3ccco3)oc2C)c(OC)c1
3,71 to 73,COc1ccccc1N1CCN(CCNCCCN2CC=C(c3c[nH]c4cc(Cl)ccc34)CC2)CC1
4,178 to 180,Cc1cc2n(C)c(=O)c3cnc4c(cnn4C)c3n2n1
5,162 to 164,CCOc1nc(=O)n([C@H]2CS[C@@H](CO)O2)cc1F (relative stereo)
6,136 to 138,CN(C(=O)C(Br)OC(N)=O)c1ccccc1 (stereo not given)
7,160,On1nc(Br)c(Cl)c1Br
8,182 to 184,COc1ccc(CC2CCC3=C(C2)CC(C)C(=O)N3)cc1 (stereo not given)
9,186 to 187,CCCN(CCC)C1=NC2C(Br)=NN(C)C2C(O)=N1 (stereo not given)
10,102 to 103,CC(=O)Oc1c(C(C)(C)C)cc(N(C)c2ccn(-c3ccccc3)n2)cc1C(C)(C)C
11,113 to 114,CCOC(=O)c1cn(-c2ccc(Oc3ccccc3)cc2)cn1
12,184 to 186,COC(=O)c1cccc2c1nc(-c1c(F)cccc1F)n2Cc1c(F)cccc1F
13,> 70,CCCCc1nc(C(C)(C)O)c(C(=O)OCc2oc(=O)oc2C)n1Cc1ccc(-c2ccccc2C(=O)O)cc1
14,190,Cc1cnc2n1N=C(c1ccc(F)cc1)c1cc3c(cc1C2)OCO3
15,176,COc1cc(Cn2c(=O)n(C3CCCCC3)c3cc(Cl)ccc32)ccc1[N+](=O)[O-]
16,78 to 80,N#CN=C(NCCSCc1ccccn1)NCCSCc1ccccn1
17,270 to 271,CC1Cc2c(F)c(F)cc3c(=O)c(C(=O)O)cn(c23)N1C (stereo not given)
18,184 to 185,COc1cc(Cl)c([N+](=O)[O-])cc1C(=O)O
19,97 to 98,CCN(CC)CCNc1cc(-c2c(-c3cccc(C)c3)nc3cccnn23)ccn1
20,131 to 132,Oc1cnc(N2CCN(CCCCn3cc(Cl)cn3)CC2)nc1
21,98,CCOC(=O)C1=C(C)NC(COC(C)=O)=C(C(=O)OCC)C1c1ccccc1Cl (stereo not given)
22,207 to 209,CSc1cc(C)nc(SC)c1NC(=O)CSc1nc2cccc(C(F)(F)F)c2o1
23,164 to 167,COc1ccc2c(c1)c1c(n2C)C2(C)CCC(=O)N2CC1 (stereo not given)

row,melting point [°C],SMILES
1,151 to 153,O=S(=O)(Nc1ccc2c(OCc3ccc(-c4ccc(Cl)cc4)cc3F)cccc2c1)C(F)(F)F
2,187,N#Cc1ccc(CC23CCNN2C(=O)N(c2cc(Cl)nc(Cl)c2)C3=O)cc1 (stereo not given)
3,130 to 132,CCCCC(=O)c1c(-c2ccc3cc(OCC(=O)O)ccc3c2)oc2ccccc12
4,109 to 111,CC(C)(C)OC(=O)Nc1cc(Cl)c(-c2ccccc2)cc1N
5,121 to 122,Cc1c(O[Si](C)(C)C(C)(C)C)cc(O[Si](C)(C)C(C)(C)C)c(C)c1C(=O)OCc1ccc([N+](=O)[O-])cc1
6,156 to 158,Cc1cccc(Nc2cc(Cl)nc(SCC(=O)NC(C)C)n2)c1C
7,105 to 106,CCCCN(Cc1ccc(-c2ccccc2-c2nnn[nH]2)cc1)c1nnn(CC(C)C)c1C(=O)O
8,225 to 227,CN(C)c1ccc(NC(=O)N2CCC(Nc3nccc(-c4c(-c5ccc(F)cc5)nc5occn45)n3)CC2)cc1
9,142,O=C(Cc1cccc2ccccc12)Nc1cc([C@H]2C[C@@H](Oc3nc4ccccc4o3)C2)[nH]n1
10,329,COc1cc2nc(-c3ccc(Cl)cc3)nc(O)c2cc1OC
11,82 to 86,Nc1ccc(C#CC2CC2)c(F)c1
12,92 to 94,COc1cc(-n2ccc(C)n2)ccc1C(=O)N1Cc2cccn2Cc2ccccc21
13,154 to 157,CNc1nc(C)ccc1C(=O)OCC#N
14,68,Cn1nc(C(F)F)c(C=O)c1F
15,154 to 156,COc1cc(N)c(Cl)cc1C(=O)NCC1CCN(CCCCC(=O)c2ccc(O)cc2)CC1
16,223 to 225,CC(=O)NCc1cccc(Nc2nccc(-c3sc(-c4cccs4)nc3C)n2)c1
17,137,CNc1ccc2c(c1)Sc1cc(NC)ccc1N2C(C)=O
18,55 to 57,CCNc1ccnc(Cl)c1
19,221 to 240,COc1ccc(C(=O)Nc2ccc(F)cc2)cc1NS(=O)(=O)c1cccc([N+](=O)[O-])c1
20,160 to 163,COC(=O)C1=C(C)NC(C)=C(C(=O)OCC2CC2)C1c1cccc([N+](=O)[O-])c1 (stereo not given)
21,130 to 141,CNC(=O)[C@H]1S[C@@H](n2cnc3c(NC)nc(Cl)nc32)[C@H](O)[C@@H]1O
22,108 to 110,CCOC(=O)[C@@H](CNC(=O)c1ccccc1)[C@H](O)C(F)(F)F
23,104 to 105,CCc1ncnc(NC(CO)CO)c1Cl

row,melting point [°C],SMILES
1,146,CCOC(=O)C(C)c1ccc2nc(N)sc2c1 (stereo not given)
2,40,CCCCCCCCCCCCCCCCCC(=O)OCCCCCCCCCCCCCC
3,305 to 309,COc1cc2c(=O)c(C#N)c[nH]c2cc1[N+](=O)[O-]
4,65 to 67,CCSC(C)(C)C(=O)CC(=O)Nc1cc(NC(=O)C(CC)Oc2ccc(C(C)(C)CC)cc2C(C)(C)CC)ccc1OC (stereo not given)
5,115 to 116,Cc1nnc(-c2ccc3occ(-c4cccc(CO)c4)c3c2)o1
6,125 to 126,Cc1c(O)cccc1C(=O)NC(Cc1ccccc1)C(O)C(=O)N1CSC(C)(C)C1C(=O)NC1CCCc2ccccc21 (stereo not given)
7,215 to 218,CC(=O)CN1CCN(c2cc3c(cc2F)c(=O)c(C(=O)O)c2n3C(C)S2)CC1 (stereo not given)
8,218 to 220,COc1ccc2c(c1)c1c(n2Cc2ccc(Cl)cc2)CCCC1C(=O)O (stereo not given)
9,114 to 115,O=C(Nc1c(OCCN(Cc2ccccc2)C(=O)C(F)(F)F)cccc1[N+](=O)[O-])C(F)(F)F
10,156 to 158,O=C1OC(=O)c2cc3c(cc21)CCOC3
11,105 to 109,Cn1cc(C2=C(c3cn(C)c4cc([N+](=O)[O-])ccc34)C(=O)N(COP(=O)(OCc3ccccc3)OCc3ccccc3)C2=O)c2ccccc21
12,118 to 121,CCCCc1nc(Cl)c(CC#N)n1Cc1ccc([N+](=O)[O-])cc1
13,> 260,Cn1cc(C(=O)O)c(=O)c2c3cc(N4CCN(c5ccc(F)c(Cl)c5)CC4)c(Cl)c(F)c3ncc21
14,58,C[C@H](CSC(=O)C(C)(C)C)C(=O)N(CC(=O)OC(C)(C)C)C1CCCC1
15,284 to 286,O=c1[nH]c2cc(Cl)ccc2c(O)c1-c1ccc(/C=C\c2ccccc2)cc1
16,189 to 191,CCCCCC1=CN(N)C2=NC(O)N(CCCNC(C)=O)C2=C1 (stereo not given)
17,234 to 236,CCCCc1nc2cccc(C(=O)O)c2n1Cc1ccc(-c2ccccc2S(=O)(=O)NC(=O)NCC2CC2)cc1
18,120 to 121,N#Cc1ccc(-c2cccc(C=O)c2O)cc1
19,109 to 111,COc1ccc(CCNC(=O)CCCCC(=O)NCCNc2ccccc2)cc1OC
20,99 to 104,O=C1NCCCCC1Cc1ccccc1 (stereo not given)
21,49 to 51,CCCn1nc(C(C)C)c(C(=O)OCc2ccccc2C(=O)c2ccccc2)c1Cc1ccc(-c2ccccc2S(=O)(=O)NC(C)(C)C)c(F)c1
22,> 280,Cc1ccc(CC2CCN(C(=O)C(=O)Nc3ccc4[nH]c(=O)[nH]c4c3)CC2)cc1
23,113,COc1ccc(Cn2nc(-c3ccc(SC)cc3)c(-c3ccc(F)cc3)cc2=S)cc1

row,SMILES,melting point [°C]
1,CNC(=O)CONC(=O)c1cc(Br)cc(Br)c1NC(=O)c1cc(Br)nn1-c1ncccc1Cl,220 to 221
2,CC(=O)Cc1ccc(OCC2CO2)cc1 (stereo not given),43
3,COc1ccc(CNS(=O)(=O)Cc2ccc3[nH]cc(CCN(C)C)c3c2)cc1,200 to 201
